Where two headings read alike, the source gives them in different places.
Key:
[1] = tested on: MLKL phosphorylation in HT29-L23 human colorectal adenocarcinoma cells; experiment: MLKL Phosphorylation High-Content Assay; type: cell-based; conditions: Homo sapiens
How it was run: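 Cells incubated six hours at 37° C., then phospho-MLKL (S358) immunostained overnight at 4° C. and imaged by high-content microscopy. Phosphorylation quantified as mean circ-ring average intensity ratio; IC50 and Ymax from 4-parameter logistic fits.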

[2] = molecular target: T1, His-GST-TVMV-hRIPK1(1-324) (Homo sapiens, UniProt Q13546); experiment: RIPK1 HTRF Binding Assay
T1 construct: The coding region of human RIPK1(1-324) flanked by NdeI site at 5′ end; made in house; host or cells: Spodoptera frugiperda (Sf9) insect cells, baculovirus
T1 sequence (Q13546 1-324): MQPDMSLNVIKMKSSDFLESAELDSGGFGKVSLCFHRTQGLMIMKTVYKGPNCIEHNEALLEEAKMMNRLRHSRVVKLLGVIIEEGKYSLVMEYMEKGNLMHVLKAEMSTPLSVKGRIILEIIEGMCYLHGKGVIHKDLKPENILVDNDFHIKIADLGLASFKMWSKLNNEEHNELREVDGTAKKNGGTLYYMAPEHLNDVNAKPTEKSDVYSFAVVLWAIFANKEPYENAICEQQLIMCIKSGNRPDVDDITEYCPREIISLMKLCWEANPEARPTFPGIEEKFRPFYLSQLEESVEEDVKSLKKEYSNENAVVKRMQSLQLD

[3] = x marks IC50 class 20-200 nM, read-out: pMLKL cell activity 20-200 nM
[4] = x marks IC50 class <20 nM, read-out: RIPK1 HTRF binding <20 nM
[5] = x marks IC50 class 20-200 nM, read-out: RIPK1 HTRF binding 20-200 nM
[6] = x marks IC50 class <20 nM, read-out: pMLKL cell activity <20 nM
[7] = x marks IC50 class >200 nM, read-out: pMLKL cell activity >200 nM

| Compound | IC50 [1, 3] | IC50 [2, 4] | IC50 [2, 5] | other results |
| --- | --- | --- | --- | --- |
| COc1ncc(-c2ccn3nc(N)nc3c2)cc1NC(=O)Cc1cc(OC(F)(F)F)ccc1F [Example 414, N-(5-(2-amino-[1,2,4]triazolo[1,5-a]pyridin-7-yl)-2-methoxypyridin-3-yl)-2-(2-fluoro-5-(trifluoromethoxy)phenyl)acetamide] | 20 to 200 nM | < 20 nM | – | – |
| COc1ncc(-c2ccn3nc(N)nc3c2)cc1C(=O)NCc1ccccc1OCC(C)C [Example 340, 5-(2-amino-[1,2,4]triazolo[1,5-a]pyridin-7-yl)-N-(2-isobutoxybenzyl)-2-methoxynicotinamide] | 20 to 200 nM | < 20 nM | – | – |
| Cc1ncc(-c2ccn3nc(N)nc3c2)cc1C(=O)NCc1ncccc1OCC1CCC1 [Example 236, 5-{2-amino-[1,2,4]triazolo[1,5-a]pyridin-7-yl}-N-{[3-(cyclobutylmethoxy)pyridin-2-yl]methyl}-2-methypyridine-3-carboxamide] | 20 to 200 nM | – | 20 to 200 nM | – |
| [2H]C([2H])([2H])Oc1ncc(-c2ccn3nc(N)nc3c2)cc1C(=O)NCc1cc(C(F)(F)F)ccc1F [Example 91, 5-{2-amino-[1,2,4]triazolo[1,5-a]pyridin-7-yl}-N-{[2-fluoro-5-(trifluoromethyl)phenyl]methyl}-2-(deutero)methoxypyridine-3-carboxamide] | 20 to 200 nM | – | 20 to 200 nM | – |
| Nc1nc2cc(-c3cnc(Cl)c(C(=O)NCc4cccc(OC(F)(F)F)c4)c3)ccn2n1 [Example 167] | – | < 20 nM | – | IC50 [1, 6]: < 20 nM |
| Cc1nc(C)c(-c2ccn3nc(N)nc3c2)cc1C(=O)NCc1cccc(OC(F)(F)F)c1 [Example 189, 5-{2-amino-[1,2,4]triazolo[1,5-a]pyridin-7-yl}-2,6-dimethyl-N-{[3-(trifluoromethoxy)phenyl]methyl}pyridine-3-carboxamide] | 20 to 200 nM | – | 20 to 200 nM | – |
| COc1ncc(-c2ccn3nc(N)nc3c2)cc1C(=O)NCc1ccccc1COC(C)C [Example 348, 5-(2-amino-[1,2,4]triazolo[1,5-a]pyridin-7-yl)-N-(2-(isopropoxymethyl)benzyl)-2-methoxynicotinamide] | 20 to 200 nM | < 20 nM | – | – |
| COc1ncc(-c2ccn3nc(N)nc3c2)cc1C(=O)N1CCC[C@@H](Cc2cccc(F)c2)C1 [Example 114, 7-{5-[(3S)-3-[(3-fluorophenyl)methyl]piperidine-1-carbonyl]-6-methoxypyridin-3-yl}-[1,2,4]triazolo[1,5-a]pyridin-2-amine] | – | < 20 nM | – | IC50 [1, 6]: < 20 nM |
| COc1ncc(-c2ccn3nc(N)nc3c2)cc1C(=O)NCc1ncccc1OCC1CC1 [Example 132, 5-{2-amino-[1,2,4]triazolo[1,5-a]pyridin-7-yl}-N-{[3-(cyclopropylmethoxy)pyridin-2-yl]methyl}-2-methoxypyridine-3-carboxamide] | 20 to 200 nM | – | 20 to 200 nM | – |
| Nc1nc2cc(-c3cc(C(=O)NCc4cc(F)ccc4OC(F)(F)F)cnc3Cl)ccn2n1 [Example 369, 5-(2-amino-[1,2,4]triazolo[1,5-a]pyridin-7-yl)-6-chloro-N-(5-fluoro-2-(trifluoromethoxy)benzyl)nicotinamide] | 20 to 200 nM | < 20 nM | – | – |
| COc1ncc(-c2ccn3nc(N)nc3c2)cc1C(=O)NCc1cccnc1OCC1CCCC1 [Example 127, 5-{2-amino-[1,2,4]triazolo[1,5-a]pyridin-7-yl}-N-{[2-(cyclopentylmethoxy)pyridin-3-yl]methyl}-2-methoxypyridine-3-carboxamide] | 20 to 200 nM | < 20 nM | – | – |
| [2H]C([2H])([2H])Oc1ncc(-c2ccn3nc(N)nc3c2)cc1C(=O)NC([2H])([2H])c1cc(C(F)(F)F)ccc1F [Example 284, 5-(2-amino-[1,2,4]triazolo[1,5-a]pyridin-7-yl)-N-((2-fluoro-5-(trifluoromethyl)phenyl)methyl-d2)-2-(methoxy-d3)nicotinamide] | 20 to 200 nM | < 20 nM | – | – |
| COc1ncc(-c2ccn3nc(N)nc3c2)cc1C(=O)NC(C)c1cccc(OC(F)(F)F)c1 (single isomer, unassigned) [Example 36-2, 5-{2-Amino-[1,2,4]triazolo[1,5-a]pyridin-7-yl}-2-methoxy-N-{1-[3-(trifluoromethoxy)phenyl]ethyl}pyridine-3-carboxamide] | – | – | – | IC50 [1, 7]: > 200 nM; IC50 ([2]; x marks IC50 class >200 nM, read-out: RIPK1 HTRF binding >200 nM): > 200 nM |
| COc1nc(C)c(-c2ccn3nc(N)nc3c2)cc1C(=O)NCc1c(F)cccc1OC1CCCC1 [Example 217, 5-{2-amino-[1,2,4]triazolo[1,5-a]pyridin-7-yl}-N-{[2-(cyclopentyloxy)-6-fluorophenyl]methyl}-2-methoxy-6-methylpyridine-3-carboxamide] | 20 to 200 nM | < 20 nM | – | – |
| Cc1ncc(-c2ccn3nc(N)nc3c2)cc1C(=O)NCc1c(F)cccc1OCC(F)(F)F [Example 306, 5-(2-amino-[1,2,4]triazolo[1,5-a]pyridin-7-yl)-N-(2-fluoro-6-(2,2,2-trifluoroethoxy)benzyl)-2-methylnicotinamide] | 20 to 200 nM | – | 20 to 200 nM | – |
| COc1nc(C)c(-c2ccn3nc(N)nc3c2)cc1C(=O)NCc1cccc(F)c1OC1C[C@@H](C)O[C@@H](C)C1 (stereo partly drawn) [Example 356, 5-(2-amino-[1,2,4]triazolo[1,5-a]pyridin-7-yl)-N-(2-(((2R,6S)-2,6-dimethyltetrahydro-2H-pyran-4-yl)oxy)-3-fluorobenzyl)-2-methoxy-6-methylnicotinamide] | – | < 20 nM | 20 to 200 nM | IC50 [1, 7]: > 200 nM |
| Cc1cnc(-c2ccn3nc(N)nc3c2)cc1C(=O)N[C@H](C)c1cc(OC(F)(F)F)ccc1F [Example 392, (R)-2-(2-amino-[1,2,4]triazolo[1,5-a]pyridin-7-yl)-N-(1-(2-fluoro-5-(trifluoromethoxy)phenyl)ethyl)-5-methylisonicotinamide] | 20 to 200 nM | < 20 nM | – | – |
| Cc1ncc(-c2ccn3nc(N)nc3c2)cc1C(=O)NCc1ccccc1OC1CCOCC1 [Example 5, 5-{2-Amino-[1,2,4]triazolo[1,5-a]pyridin-7-yl}-2-methyl-N-{[2-(oxan-4-yloxy)phenyl]methyl}pyridine-3-carboxamide] | 20 to 200 nM | < 20 nM | – | – |
| COc1ncc(-c2ccn3nc(N)nc3c2)nc1C(=O)NCCC(C)c1ccccc1 (centres unmarked) [Example 385, 6-(2-amino-[1,2,4]triazolo[1,5-a]pyridin-7-yl)-3-methoxy-N-(3-phenylbutyl)pyrazine-2-carboxamide] | – | – | 20 to 200 nM | IC50 [1, 7]: > 200 nM |
| COc1nc(C)c(-c2ccn3nc(N)nc3c2)cc1C(=O)NCc1cc(F)cc(F)c1O[C@H]1CCOC1 [Example 351, (S)-5-(2-amino-[1,2,4]triazolo[1,5-a]pyridin-7-yl)-N-(3,5-difluoro-2-((tetrahydrofuran-3-yl)oxy)benzyl)-2-methoxy-6-methylnicotinamide] | – | < 20 nM | – | IC50 [1, 6]: < 20 nM |
| COc1nc(C)c(-c2ccn3nc(N)nc3c2)cc1C(=O)NCc1ccccc1OCC1CC(F)(F)C1 [Example 4, 5-{2-Amino-[1,2,4]triazolo[1,5-a]pyridin-7-yl}-N-({2-[(3,3-difluorocyclobutyl)methoxy]phenyl}methyl)-2-methoxy-6-methylpyridine-3-carboxamide] | 20 to 200 nM | < 20 nM | – | – |
| COc1nc(C)c(-c2ccn3nc(N)nc3c2)cc1C(=O)NC(C)c1ccccc1OC(F)(F)F (centres unmarked) [Example 205, 5-{2-amino-[1,2,4]triazolo[1,5-a]pyridin-7-yl}-2-methoxy-6-methyl-N-{1-[2-(trifluoromethoxy)phenyl]ethyl}pyridine-3-carboxamide] | – | < 20 nM | – | IC50 [1, 6]: < 20 nM |
| COc1ncc(-c2ccn3nc(N)nc3c2)cc1C(=O)NCc1ccccc1OCC1CCC(C)CC1 (centres unmarked) [Example 10, 5-{2-Amino-[1,2,4]triazolo[1,5-a]pyridin-7-yl}-2-methoxy-N-({2-[(4-methylcyclohexyl)methoxy]phenyl}methyl)pyridine-3-carboxamide] | – | – | 20 to 200 nM | IC50 [1, 7]: > 200 nM |
| COc1ncc(-c2ccn3nc(N)nc3c2)cc1C(=O)NCc1cccc(OC2CCCC2)c1 [Example 45, 5-{2-Amino-[1,2,4]triazolo[1,5-a]pyridin-7-yl}-N-{[3-(cyclopentyloxy)phenyl]methyl}-2-methoxypyridine-3-carboxamide] | – | – | 20 to 200 nM | IC50 [1, 7]: > 200 nM |
| COc1nc(C)c(-c2ccn3nc(N)nc3c2)cc1C(=O)NCc1cc(F)cc(F)c1OCC(C)C [Example 333, 5-(2-amino-[1,2,4]triazolo[1,5-a]pyridin-7-yl)-N-(3,5-difluoro-2-isobutoxybenzyl)-2-methoxy-6-methylnicotinamide] | 20 to 200 nM | < 20 nM | – | – |
| [2H]C([2H])([2H])Oc1nc(C)c(-c2ccn3nc(N)nc3c2)cc1C(=O)NC(C)c1cc(OC(F)(F)F)ccc1F (single isomer, unassigned) [Example 97-1, 5-{2-amino-[1,2,4]triazolo[1,5-a]pyridin-7-yl}-N-{1-[2-fluoro-5-(trifluoromethoxy)phenyl]ethyl}-2-(deutero)methoxy-6-methylpyridine-3-carboxamide] | 20 to 200 nM | – | 20 to 200 nM | – |

From patent publication US10913738B2 (BRISTOL-MYERS SQUIBB COMPANY, priority 2017, dated 2021)
